Measured values reported in patent US20020143062A1, “Method to incorporate N-(4-hydroxyphenyl) retinamide in liposomes” (Board of Regents, The University of Texas System, priority 2000, published 2002).
pIC50: −log10 of the molar value. Structures can show the parent of a compound that is named as a salt. Where two headings read alike, the source gives them in different places. Starred links: 1 amine or outer side, 2 acyl side, 3 side chain; linkers in the order of their positions; H or OH if unused. Positions of bridges follow the written chain, without caps; N, C: chain ends. Non-standard residues stand in square brackets, D forms with d. Residues, ends and D or L forms follow the SMILES beside them. Chains are numbered I, II in the order given. Actinocin(9to1) = Cc1c2oc3c(C)ccc(C(=O)[*:1])c3nc-2c(C(=O)[*:2])c(N)c1=O; NMeV = CN[C@H](C(=O)O)C(C)C; Sar = CNCC(=O)O

Columns and labels:
MCF-7/WT = experiment: Cellular proliferation assay, IC50 of retinoids with/without cyclosporin A; format: cell-based
[1] = test system: ER-negative MDA-MB-231 cells; experiment: NO production, nitrite (Table 8); format: cell-based; settings: cyclosporin A 4 μg/ml; CD437 2 μM; ATRA 1 μM; alone or combined as labelled; 3 days
Description: (§1) Liposomal 4-HPR in combination with cyclosporin A, increased iNOS production of NO in breast cancer cells (Table 3-5). […] Furthermore, an increase in the production of NO in these cells was not indicated with other retinoids such as CD437 and ATRA.

ER-positive MCF-7 cells [2] = experiment: NO production, nitrite assay (Tables 5 and 7); format: cell-based; settings: for increase of iNOS production of NO in the presence of cyclosporin A: both ER positive and ER negative breast cancer cells (Tables 7, 8)
Description: (§2) Nitric oxide (NO), an important biological second messenger, is known to induce growth inhibition and apoptosis in cells. Nitric oxide (NO) is biosynthesized by isoenzymes called nitric oxide synthases. One such isoenzyme, inducible NOS (iNOS), is present only after cytokine induction, such as interferon-γ (IFN-γ). […] Here, the ability of liposomal 4-HPR and IFN-γ to induce NO production and growth inhibition in breast cancer positive (Table 5) and breast cancer negative (Table 6) cells is examined by nitrite assays and growth inhibition assays, as known to the skilled artisan.
(§3) It is also known to those skilled in the art that nitric oxide (NO) is a biologic mediator derived from the amino acid L-arginine. A family of enzymes, known as nitric oxide synthase (NOS), act upon L-arginine to oxidize one of the guanidino nitrogens to nitric oxide while citrulline is formed from the remainder of the L-arginine molecule.
as §1

[3] = cited from earlier work
[4] = cited from earlier work; remark: listed apart in the source
MCF-7/ADR = experiment: Cellular proliferation assay, IC50 of retinoids with/without cyclosporin A; format: cell-based
[5] = cited from earlier work; remark: listed apart in the source
ER-positive MCF-7 cells [6] = experiment: Growth inhibition, cell count (Table 6); format: cell-based; settings: alone or with 4HPR 1 μM as labelled, 5 days
Description: Nitric oxide (NO), an important biological second messenger, is known to induce growth inhibition and apoptosis in cells. Nitric oxide (NO) is biosynthesized by isoenzymes called nitric oxide synthases. […]

ER-positive MCF-7 cells [7] = experiment: NO production, nitrite assay (Table 6); format: cell-based; settings: alone or with 4HPR 1 μM as labelled, 5 days
Description: as §2, §3

ER-positive MCF-7 cells [8] = experiment: Growth inhibition, cell count (Table 5); format: cell-based; settings: alone or with 4HPR 1 μM as labelled, 5 days
Description: as §2

[9] = cyclosporin A 4 μg/ml, CD437 2 μM, ATRA 1 μM, alone or combined as labelled, 3 days
[10] = without cyclosporin A, read-out: IC50 Without CsA
[11] = single oral doses of about 0.6 mg/kg to about […]

With CC1=C(/C=C/C(C)=C/C=C/C(C)=C/C(=O)O)C(C)(C)CCC1 [ATRA, all-trans-retinoic acid] the pIC50 (MCF-7/WT; Homo sapiens, MCF7, cotreatment with CsA, concentration not marked, read-out: IC50 With CsA) was 6.54, the pIC50 (MCF-7/WT; Homo sapiens, MCF7, without cyclosporin A, read-out: IC50 Without CsA) was 6.54 and the “Nitrite (NO production)” value [1] was 7.1 μM Nitrite /1 × 10^6 cells. The “increase of iNOS production of NO in the presence of cyclosporin A” value (ER-positive MCF-7 cells [2]) was “not indicated” and the “Nitrite (NO production)” value (ER-positive MCF-7 cells [2]; [9]) was 15.1 μM Nitrite /1 × 10^6 cells.
In the case of Cc1c2oc3c(C)ccc(C(=O)N[C@@H]4C(=O)N[C@H](C(C)C)C(=O)N5CCC[C@H]5C(=O)N(C)CC(=O)N(C)[C@@H](C(C)C)C(=O)O[C@@H]4C)c3nc-2c(C(=O)N[C@@H]2C(=O)N[C@H](C(C)C)C(=O)N3CCC[C@H]3C(=O)N(C)CC(=O)N(C)[C@@H](C(C)C)C(=O)O[C@@H]2C)c(N)c1=O [Actinomycin D] (I: T[dV]P[Sar][NMeV] / II: T[dV]P[Sar][NMeV]; ester I:1-I:C, II:1-II:C; linker I:N-II:N via Actinocin(9to1)), the “dose excreted intact into the bile” value ([3]; in vivo) is given as “Half of the dose”, the “dose excreted intact into the urine” value ([3]; in vivo) is given as 10% and the half-life ([3]; in vivo) is given as “about 36 hours”. For the same compound, the “passage of the blood-brain barrier” value ([3]; in vivo) was “does not pass the blood-brain barrier”.
In the case of CS(=O)(=O)OCCCCOS(C)(=O)=O [Busulfan, 1,4-butanediol dimethanesulfonate], the “adults obtaining hematologic remission with regression or stabilization of organomegaly” value ([4]; previously untreated chronic myelogenous leukemia) is given as “Approximately 90%”.
With O=C(O)c1ccc2cc(-c3ccc(O)c(C45CC6CC(CC(C6)C4)C5)c3)ccc2c1 [CD437] the pIC50 (MCF-7/ADR; cotreatment with CsA 2 μg/ml, read-out: IC50 With CsA) was 3.71, the pIC50 (MCF-7/ADR; cotreatment with CsA 4 μg/ml, read-out: IC50 With CsA) was 5.92 and the pIC50 (MCF-7/ADR; [10]) was 5.80. For the same compound, the pIC50 (MCF-7/WT; cotreatment with CsA, concentration not marked, read-out: IC50 With CsA) was 6.45, the pIC50 (MCF-7/WT; [10]) was 6.54 and the “Nitrite (NO production)” value [1] was 59.3 μM Nitrite /1 × 10^6 cells. The “increase of iNOS production of NO in the presence of cyclosporin A” value (ER-positive MCF-7 cells [2]) was “not indicated” and the “Nitrite (NO production)” value (ER-positive MCF-7 cells [2]; [9]) was 71.8 μM Nitrite /1 × 10^6 cells.
In the case of O=C(O)CCCc1ccc(N(CCCl)CCCl)cc1 [Chlorambucil, 4-[bis(2-chlorethyl)amino] benzenebutanoic acid], the “oral / gastrointestinal absorption” value ([3]; in vivo) is given as “rapidly and completely absorbed”, the “terminal half-life of the parent drug” value [3, 11] is given as “about 1.5 hours” and the “time to peak plasma chlorambucil levels” value [3, 11] is given as “within one hour”.
For N.N.[Cl][Pt][Cl] [Cisplatin], the “oral / gastrointestinal absorption” value ([3]; in vivo) is listed as “not absorbed orally”.
In the case of COc1cccc2c1C(=O)c1c(O)c3c(c(O)c1C2=O)C[C@@](O)(C(C)=O)C[C@@H]3O[C@H]1C[C@H](N)[C@H](O)[C@H](C)O1 [Daunorubicin, 5,12-Naphthacenedione, (8S-cis)-8-acetyl-10-[(3-amino-2,3,6-trideoxy-a-L-lyxo-hexanopyranosyl)oxy]-7,8,9,10-tetrahydro-6,8,11-trihydroxy-10-methoxy-, hydrochloride], the “oral / gastrointestinal absorption” value ([3]; in vivo) is listed as “Oral absorption is poor”, the elimination half-life ([3]; in vivo) is listed as “about 19 hours” and the “secreted into the bile” value ([3]; in vivo) is listed as “about 40%”.
In the case of COc1cccc2c1C(=O)c1c(O)c3c(c(O)c1C2=O)C[C@@](O)(C(=O)CO)C[C@@H]3O[C@H]1C[C@H](N)[C@H](O)[C@H](C)O1 [Doxorubicin, 5,12-Naphthacenedione, (8s-cis)-10-[(3-amino-2,3,6-trideoxy-a-L-lyxo-hexopyranosyl)oxy]-7,8,9,1 0-tetrahydro-6,8,11-trihydroxy-8-(hydroxyacetyl)-1-methoxy-hydrochloride], the “oral / gastrointestinal absorption” value ([3]; in vivo) is listed as “absorbed poorly” and the elimination half-life ([3]; in vivo) is listed as “about 30 hours”.
For O=NN(CCCl)C(=O)NC1CCCCC1 [Lomustine, 1-(2-chloro-ethyl)-3-cyclohexyl-l nitrosourea], the “radioactivity excreted in the form of degradation products within 24 hours” value ([3]; oral radioactive lomustine, about 30 mg/m^2 to 100 mg/m^2) is listed as “about half” and the “serum half-life of the metabolites” value ([3]; oral radioactive lomustine) is listed as “about 16 hours to about 2 days”.
In the case of N[C@@H](Cc1ccc(N(CCCl)CCCl)cc1)C(=O)O [Melphalan, 4-[bis(2-chloroethyl)amino]-L-phenylalanine], the “proportion of patients with a favorable response” value ([4]; multiple myeloma, oral administration) is given as “about one third to one half”.
In the case of CO[C@@]12[C@H](COC(N)=O)C3=C(C(=O)C(C)=C(N)C3=O)N1C[C@@H]1N[C@@H]12 [Mitomycin], the “time required to reduce the serum concentration by about 50%” value ([5]; 30 mg bolus injection) is given as 17 min and the “dose excreted unchanged in the urine” value ([5]; in vivo) is given as “Approximately 10%”.
For COc1cccc2c1C(=O)c1c(O)c3c(c(O)c1C2=O)C[C@@](O)([C@H](C)O)C[C@@H]3O[C@H]1C[C@H](N)[C@H](O)[C@H](C)O1 [daunorubicinol], the “half-life of active metabolite” value ([3]; in vivo) is listed as “about 27 hours”.
In the case of CC[C@]1(O)C[C@@H]2CN(CCc3c([nH]c4ccccc34)[C@@](C(=O)OC)(c3cc4c(cc3OC)N(C)[C@H]3[C@@](O)(C(=O)OC)[C@H](OC(C)=O)[C@]5(CC)C=CCN6CC[C@]43[C@@H]65)C2)C1 [vinblastine], the “administered dose recovered in the feces after biliary excretion” value ([3]; in vivo) is given as “about 10%”, the “half-life of disappearance from plasma after distribution (first)” value ([3]; intravenous injection) is given as “approximately 1 hours” and the “half-life of disappearance from plasma after distribution (second)” value ([3]; intravenous injection) is given as roughly 72000 s.
In the case of CC[C@]1(O)C[C@H]2CN(CCc3c([nH]c4ccccc34)[C@@](C(=O)OC)(c3cc4c(cc3OC)N(C=O)[C@H]3[C@@](O)(C(=O)OC)[C@H](OC(C)=O)[C@]5(CC)C=CCN6CC[C@]43[C@@H]65)C2)C1 [vincristine], the “terminal half-life (clearance from plasma)” value ([3]; in vivo) is given as “about 24 hours”.
With “IFN-γ: Interferon gamma, cytokine that induces iNOS” the Cell count (ER-positive MCF-7 cells [6]; IFN-γ 25 U/ml) was 51 × 10^4, the Cell count (ER-positive MCF-7 cells [6]; IFN-γ 50 U/ml) was 52 × 10^4 and the “Nitrite (NO production)” value (ER-positive MCF-7 cells [7]; IFN-γ 25 U/ml) was 28.3 ± 4.1 μM Nitrite /1 × 10^6 cells. For the same compound, the “Nitrite (NO production)” value (ER-positive MCF-7 cells [7]; IFN-γ 50 U/ml) was 24.4 ± 0.4 μM Nitrite /1 × 10^6 cells, the Cell count (ER-positive MCF-7 cells [8]; IFN-γ 25 U/ml) was 254 × 10^4 and the Cell count (ER-positive MCF-7 cells [8]; IFN-γ 50 U/ml) was 258 × 10^4. For the same compound, the “Nitrite (NO production)” value (ER-positive MCF-7 cells [2]; IFN-γ 25 U/ml, alone or with 4HPR 1 μM as labelled, 5 days) was 7.1 ± 3.3 μM Nitrite /1 × 10^6 cells and the “Nitrite (NO production)” value (ER-positive MCF-7 cells [2]; IFN-γ 50 U/ml, alone or with 4HPR 1 μM as labelled, 5 days) was 6.6 ± 0.5 μM Nitrite /1 × 10^6 cells.
